Results published in patent US20140128357A1, “METHODS OF PRODUCING AND USING BRASSINOSTEROIDS TO PROMOTE GROWTH, REPAIR AND MAINTENANCE OF SKELETAL MUSCLE AND SKIN” (Rutgers University, priority 2010, published 2014).
Marks after values point to notes of the source that are not given here.

What was measured:
[1] = system: cutaneous wound in C57BL/6J mice; assay: Mouse cutaneous injury model of wound healing; assay type: in vivo; settings: 10 μg/mouse/day topically for 10 days
Description: Under volatile anesthesia (5% isoflurane to effect), the shoulder and back region of each animal was shaved. A sharp punch (ID 6 mm) over their lumbar spine was applied to remove the skin, including panniculus carnosus and adherent tissues. Test substances were administered topically (TOP), immediately following cutaneous injury, once daily for 10 consecutive days. […] Wounds were traced onto clear plastic sheets and were measured by use of an ImageJ program (rsbweb.nih.gov/ij/), online from the National Institutes of Health (NIH). ImageJ is a public domain, Java-based image processing program developed at the NIH. Time to wound closure was estimated by comparing the area of the wound undergoing treatment to the areas of the wound undergoing control treatments. The percent closure of the wound (%) was calculated, and wound half-closure time (the time at which 50% of the cutaneous wound is closed, CT50) was analyzed by linear regression using Graph-Prism (Graph Software USA). At the end of experiment (10 days after the induction of the wound), animals were euthanized by CO2 gas inhalation. Blood was collected by heart puncture. Wound tissue and muscle were collected for immunohistochemical analyses and wound healing factor assays. HB increased the percent of wound closure in vivo in a mouse model of wound closure (FIG. 13). […] Twenty seven six-week-old male C57BL/6J mice, obtained from the Jackson Laboratory (Bar Harbor, Me.), were housed in individual chambers in a room maintained at a constant temperature with 12 h light-dark cycle. Mice had free access to food and water. Mice were allowed to adapt to new conditions for seven days and handling the mice was performed daily during this time to reduce the stress of physical manipulation. Mice were randomized into groups (n=9) according to body weight one day prior to dosing. Under volatile anesthesia (5% isoflurane to effect), the shoulder and back region of each animal was shaved. A sharp punch (ID 6 mm) over lumbar spine was applied to remove the skin including panniculus carnosus and adherent tissues. […] Pharmacol. 77: 1117-1124, 2009) as a positive control) was administered topically, immediately following cutaneous injury, and then daily for 10 days. To investigate the kinetics of wound healing, wound size was photographed and measured every two days with ImageJ software (rsbweb.nih.gov/ij/). […] The percent closure of the wound (%) was calculated, and time at which 50% of the cutaneous wound was closed (CT50) was analyzed by linear regression. […] Wound sizes were photographed and measured every 2 days for 10 days. Wound closure (%) relative to day 1 was determined every 2 days, and CT50 was calculated by linear regression. […]

[2] = system: TNF-α, TGF-β and ICAM-1 mRNA in wounds; assay: Cytokine and chemokine mRNA in wound tissue, qPCR; assay type: in vivo; settings: day 10 post-wounding, 10 μg/mouse topically
Description: Cutaneous would healing is characterized by an initial inflammatory response. To evaluate the effect of brassinosteroids on inflammation in wound healing, mRNA levels of proinflammatory cytokines TNF-α and TGF-β and an adhesion chemokine ICAM-1 were measured in the wound tissue of control and treated mice on day 10 post-wounding and treatment with HB, positive control (CGS-21680), or negative control (vehicle).
Total RNA was extracted from fibroblasts using Trizol (Invitrogen, Carlsbad, Calif.). RNA was quantified spectrophotometrically by absorbance measurements at 260 and 280 nm using the NanoDrop reader (NanoDrop Technologies, Wilmington, Del.). Quality of RNA was assessed by gel electrophoresis. RNA was then treated with DnaseI (Invitrogen, Carlsbad, Calif.) to remove traces of DNA contamination and the cDNAs were synthesized with 2.5 μg of RNA using Stratascript reverse transcriptase (Stratagene, Santa Clara, Calif.) according to the manufacturers' protocols. Quantitative PCR was performed in duplicate essentially as described previously (Komarnytsky et al., Int. J. Obes. 35: 236-43, 2011) using the following gene-specific primers (IDT, Coralville, Iowa) selected using the Primer Express 2.0 software (Applied Biosystems, Foster City, Calif.): β-actin, forward primer 5′-GGGAAATCGTGCGTGACATT-3′ (SEQ ID NO: 5), and reverse primer 5′-GCG GCA GTG GCC ATC TC-3′ (SEQ ID NO: 6). Target gene expression of the housekeeping gene β-actin was assigned a value of 1. Samples were subjected to a melting curve analysis to confirm the amplification specificity. The relative change in the […] with respect to the endogenous control gene was determined using 2ΔΔCT method (Winer et al., Anal. Biochem. 270: 41-9, 1999).

[3] = system: elastin mRNA in human neonatal dermal fibroblasts (HNDF); assay: Elastin gene expression in human dermal fibroblasts, qPCR; assay type: cell-based; settings: 16 h
Description: Human neonatal dermal fibroblasts (HNDF) were maintained in DMEM+10% FBS and were kept in a humidified 37° C. incubator with 5% CO2. Cells were plated at a density of 1×10^4 cells per well in a 24-well plate and incubated for 24 h, or until 100% confluency was reached. Subsequently, the media was removed and cells were washed with 500 μL PBS twice to remove detached cells or cell debris. HNDF were then treated for 16 h as follows: DMEM only, retinoic Acid 5 μM, retinoic acid 10 μM, Homocastasterone 5 μM and Homocastasterone 10 μM.
RNA was extracted from HNDF using Trizol reagent (Invitrogen) following manufacturer instructions. RNA was quantified spectrophotometrically by absorbance measurements at 260 nm and 280 nm using the NanoDrop system (NanoDrop Technologies, Wilmington, Del.). Quality of RNA was assessed by separation in gel-electrophoresis. To remove any traces of DNA contamination, RNA was then treated with Dnase I (Invitrogen) following the manufacturer guidelines. Complementary DNAs (cDNAs) were synthesized using 3.0 μg of RNA for each sample using Applied Biosystems High Capacity cDNA Reverse Transcription Kit following the manufacturer's protocol.
Quantitative RT-PCR (qPCR) amplifications were carried out in triplicate on an ABI 7300 Real-Time Detection System in a total volume of 25 μl containing 12.5 μl Brilliant SYBR® Green PCR master mix (Applied Biosystems), 5 μl of the 1:25 diluted cDNA, 0.5 μl of 6 μM gene-specific primers (IDT, Coralville, Iowa) and […] PCR-grade water. Primers were synthesized by Integrated DNA Technologies, Inc. (Coralville, Iowa, USA) as follows: β-actin, forward primer 5′-ACGTTGCTATCCAGGCTGTGCTAT-3′ (SEQ ID NO: 1), reverse primer 5′-CTCGGTGAGGATCTTCATGAGGTAGT-3′ (SEQ ID NO: 2); elastin, forward primer 5′-AAGCAGCAGCAAAGTTCGGT-3′ (SEQ ID NO: 3), and reverse primer 5′-ACTAAGCCTGCAGCAGCTCCATA-3′ (SEQ ID NO: 4). qPCR amplifications were performed on the 7300 Real Time PCR System (A&B Applied Biosystems) using 1 cycle at 50° C. for 2 min, 1 cycle at 95° C. for 10 min, followed by 40 cycles of 15 s at 95° C. and 1 min at 60° C. The dissociation curve was completed with one cycle of 15 s at 95° C., 1 min at 60° C., and 15 s of 95° C. No RT (NRT) and no template control (NTC) were included in each experiment as quality control steps. Target mRNA expression was analyzed using the ΔΔCt method and normalized with respect to the expression of the β-actin housekeeping gene. Cells treated with DMEM only (negative control) served as the calibrator sample in this study, and a value of 1.0 was assigned to the target gene expression of the calibrator sample. All samples were run in triplicate. A p value of 0.001 was considered to be significant.

[4] = system: L6 rat myotubes; assay: Protein synthesis, [3H]-phenylalanine incorporation in myotubes; assay type: cell-based; settings: IGF-1 6.5 nM positive control, 4 h
Description: In some aspects, cell culture experiments were carried out. Rat L6 skeletal muscle cell line CRL-1458 was obtained from ATCC (Manassas, Va.). Myoblasts were routinely maintained in Dulbecco's modified Eagle's medium (DMEM) containing 10% FBS and 0.1% penicillin-streptomycin at 37° C. and 5% CO2. Cells were subcultured into 24-well plates for protein synthesis, degradation, and cell viability studies and into 6-well plates for Western blot analyses (Greiner Bio One, Monroe, N.C.). Once cells reached 90% confluence, differentiation was induced by lowering the serum concentration to 2%, and medium was changed every 2 days. After 7-9 days of culture the myoblasts had fused into multinucleated myotubes (Mandel et al., Nature 251:618-620, 1974). NIH 3T3 murine embryonic fibroblast cell line (ATCC #CCL-92) was maintained in DMEM and 10% FBS at 37° C. in 5% CO2, and passaged every 3-4 days.
In various aspects, protein synthesis is measured to determine the effect of brassinosteroid on a particular protein. All known methods for measuring protein synthesis are included in the methods of the disclosure. In brassinosteroid dose response studies, fully differentiated myotubes were washed with serum-free DMEM and treated in triplicate with vehicle (0.1% ethanol), increasing concentrations of HB, or 6.5 nM of insulin-like growth factor-1 (IGF-1) as a positive control. Compounds were added to serum-free medium containing 0.5 μCi/mL [^3H]-phenylalanine and incubated for 4 h. For the HB time course study, fully differentiated myotubes were treated with 3 μM HB for 1-24 h using the same culture conditions. The incubation was stopped by placing cells on ice, discarding the medium, and washing the cells extensively with ice-cold PBS to remove the non-incorporated radiolabel. Proteins were precipitated with 5% trichloroacetic acid and dissolved in 0.5N NaOH (Montgomery et al., Methods Cell. Sci. 24:123-129, 2002). Specific radioactivity of protein-bound phenylalanine was quantified using liquid scintillation counter LS 6500 (Beckman Coulter, Fullerton, Calif.) and normalized to mg of total protein determined by BCA protein assay (Pierce Biotechnology, Rockford, Ill.).
The bioactivity of HB and its analogs was evaluated by measuring increases in protein synthesis in the L6 rat skeletal muscle cells in vitro. Cells were incubated for 4 h with [^3H]-phenylalanine and treated in triplicate with vehicle (0.1% ethanol) or test compound (10 μM), and protein synthesis was measured as incorporation of [^3H]-phenylalanine into protein normalized by total protein (Table 3). Under these conditions, both HB and (22S,23S)-homocastasterone increased protein synthesis by 37.2±5.9% (p<0.001) and 41.0±2.7% (p<0.001), respectively. This protein synthesis increase compared favorably to the biological activity of IGF-1 at 6.5 nM (42.5±4.5%, p<0.001) that served as a positive control in this assay. Removal of the 2α-hydroxyl group and fluorination at C-3 in the A ring (compound IDs 3-4 in Table 3) led to about a 50% decrease in bioactivity (24.6±5.3%, p<0.01 and 22.5±2.7%, p<0.01, respectively) compared to the positive control. However, there was still an increase in protein synthesis. […] Modifications in the side chain (compound IDs 7-9 in Table 3) abolished the activity.

[5] = system: AKT (Ser473) phosphorylation in L6 myotubes; assay: AKT (Ser473) phosphorylation, Western blot; assay type: cell-based, rat
Description: In some aspects, Western blot analyses were carried out. Fully differentiated L6 myotubes were cultured as described above, and whole cell extracts were prepared in ice-cold RIPA buffer supplemented with 10 mM sodium fluoride, 2 mM sodium orthovanadate, 1 mM PMSF, and protease inhibitor cocktail (Sigma) and centrifuged at 12,000 g for 20 min at 4° C. Equal amounts of protein (50 μg) from the supernatants were separated on 10% SDS polyacrylamide gels and blotted onto the nitrocellulose membrane. Western blot detection was carried out with monoclonal phospho-AKT (Ser473) antibodies according to the manufacturer's instructions (Cell Signaling Technology, Danvers, Mass.). After being washed, the blots were incubated with an anti-rabbit peroxidase-labeled secondary antibody and visualized using ECL Western Blotting Detection Reagent (GE Healthcare, Piscataway, N.J.). After being stripped, the same blots were probed with total AKT antibodies to serve as loading controls.

CCNC(=O)[C@H]1O[C@@H](n2cnc3c(N)nc(NCCc4ccc(CCC(=O)O)cc4)nc32)[C@H](O)[C@@H]1O [CGS-21680, reference compound]
CT50, time at which 50% of the cutaneous wound is closed [1]: 6.2 ± 0.4 days | ICAM-1 mRNA in wound tissue [2]: no effect | TGF-β mRNA in wound tissue [2]: no effect | TNF-α mRNA in wound tissue [2]: remarkable suppression

CC1=C(/C=C/C(C)=C/C=C/C(C)=C/C(=O)O)C(C)(C)CCC1 [Retinoic Acid, reference compound]
Increase in elastin mRNA levels (-fold over control) ([3]; 5 μM): 2.9** fold | Increase in elastin mRNA levels (-fold over control) ([3]; 10 μM): 2.7** fold

IGF-1: Insulin-like growth factor 1, positive control for protein synthesis
Protein synthesis (% increase over control) [4]: 42.5±4.5% | time to AKT phosphorylation [5]: ≤ 10 min
